Calls of active or inactive are those of the source. The rule behind the calls is not given here.
Key:
[1] = Induction of NGF gene expression in human 1321N1 cells at 200 uM relative to control; type: functional
[2] = test system: PC-12; assay: Stimulation of neurite outgrowth in rat PC12 cells assessed as morphological change at 200 uM after 24 hrs; type: functional, cell-based

| Structure (SMILES) | Fold change [1] | Activity [2] |
| --- | --- | --- |
| CC(C)C1=C2C3=CC=C(C=O)C[C@H](O)[C@]3(C)CC[C@@]2(C)[C@H](O)C1 [CYRNEINE A] | 3.8 | – |
| CC(C)C1=CC(=O)[C@]2(C)CC[C@]3(C)C(=CC=C(C=O)C[C@@H]3O)[C@]12O [CYRNEINE B] | 7.3 | – |
| CC(C)C1=CC(=O)[C@]2(C)CC[C@@]3(C)C(=O)CC(C=O)=CC[C@@H]3[C@H]12 [CYRNEINE C] | 2.7 | inactive |
| CC(C)C1=CC(=O)[C@]2(C)CC[C@@]3(C)C(=O)CC(C=O)=CC[C@@H]3[C@]12O [CYRNEINE D] | 1.3 | inactive |
| CC(C)C1=CC(=O)[C@]2(C)CC[C@]3(C)C(=CC=C(C=O)C[C@@H]3O)[C@H]12 [GLAUCOPINE C] | 3.5 | inactive |

— ChEMBL document CHEMBL1142930, “Cyathane diterpenes from Sarcodon cyrneus and evaluation of their activities of neuritegenesis and nerve growth factor production” (2007)
